Test results from article PMC3335078, “Length and Amino Acid Sequence of Peptides Substituted for the 5-HT3A Receptor M3M4 Loop May Affect Channel Expression and Desensitization” (PLoS ONE, 2012).

What was measured:
[1] = target: T1, 5-HT3A receptor wild-type (WT, V5-tagged) (Mus musculus, UniProt P23979); assay: Two-electrode voltage clamp, 5-HT-induced currents in oocytes expressing wild-type 5-HT3A; assay type: cell-based; details: wildtype
T1 construct: unrelated to the structural/functional states accessible to a normal full-length 5-HT3A receptor; expressed in transfected cells; host or cells: Xenopus laevis oocytes injected with mRNA
T1 sequence (P23979 24-483 isoform P23979-2 limits assumed): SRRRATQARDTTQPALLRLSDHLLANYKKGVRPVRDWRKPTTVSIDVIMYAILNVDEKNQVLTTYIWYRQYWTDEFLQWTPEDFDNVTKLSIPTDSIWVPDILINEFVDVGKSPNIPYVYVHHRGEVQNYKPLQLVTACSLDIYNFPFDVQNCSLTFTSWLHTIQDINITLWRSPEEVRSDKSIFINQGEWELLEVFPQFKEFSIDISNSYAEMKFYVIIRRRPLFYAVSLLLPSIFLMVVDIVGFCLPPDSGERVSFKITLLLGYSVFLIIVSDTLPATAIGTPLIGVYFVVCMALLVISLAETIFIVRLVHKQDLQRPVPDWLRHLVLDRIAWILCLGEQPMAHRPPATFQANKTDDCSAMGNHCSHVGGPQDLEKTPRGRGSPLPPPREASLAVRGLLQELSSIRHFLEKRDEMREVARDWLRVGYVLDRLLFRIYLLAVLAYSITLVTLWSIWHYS
Protocol: The mouse 5-HT3A cDNA with an N-terminal V5 epitope tag was cloned into the pXOON vector as previously described [34], and is referred to in this paper as “wild-type” (WT).
Currents were recorded under two-electrode voltage clamp from oocytes 2–5 d post-injection as described previously [37]. […] The perfusion chamber volume was 200 µl. A 3 M KCl/agar bridge connected the ground electrode to the bath. The holding potential was maintained at −60 mV. […] Salts were purchased from Fisher Scientific (Hampton, NH) or Sigma-Aldrich.
Desensitization rates were determined by fitting a single exponential decay function to the current data with Prism 4 software (GraphPad Software). Significant differences compared with wild-type were determined by a one-way ANOVA (p<0.05) using Dunnett's multiple comparison post-hoc test (p<0.05). […] One way ANOVA (P<0.05) with post hoc Dunnett's Multiple Comparison test was performed using Prism 5.0 (Graphpad software.)

[2] = target: T2, 5-HT3A-A3 (M3M4 loop replaced by three alanines) (Mus musculus, UniProt P23979, DELINS338-452AAA); assay: Two-electrode voltage clamp, oocytes expressing 5-HT3A-A3; assay type: cell-based
T2 construct: expressed in transfected cells; host or cells: Xenopus laevis oocytes injected with mRNA
T2 sequence (P23979 with tags, fused parts or gaps isoform P23979-2 DELINS338-452AAA limits assumed): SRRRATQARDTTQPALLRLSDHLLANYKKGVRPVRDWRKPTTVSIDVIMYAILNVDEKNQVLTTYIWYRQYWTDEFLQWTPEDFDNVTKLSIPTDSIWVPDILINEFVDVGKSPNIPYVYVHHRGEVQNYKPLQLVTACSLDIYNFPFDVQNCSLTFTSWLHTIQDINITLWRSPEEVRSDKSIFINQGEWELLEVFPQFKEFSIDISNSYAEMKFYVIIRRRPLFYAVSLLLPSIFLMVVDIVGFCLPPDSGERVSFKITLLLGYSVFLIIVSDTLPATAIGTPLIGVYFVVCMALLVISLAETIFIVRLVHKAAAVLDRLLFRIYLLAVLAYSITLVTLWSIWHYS
Description: (§1) The mouse 5-HT3A cDNA with an N-terminal V5 epitope tag was cloned into the pXOON vector as previously described, and is referred to in this paper as “wild-type” (WT). The starting construct for all of the M3M4 loop replacement constructs used in this work was the 5-HT3A-ΔM3M4 construct formed by splicing the cytoplasmic end of M3 (M3-LVHK/QDLQRP…) to the cytoplasmic end of M4 (…WLRVGY/VLDRLL-M4). The splice was made at the site of the “/” to yield the sequence M3-LVHK/VLDRLL-M4 [34]. This removed 115 residues predicted to form the M3M4 loop.
The construction of the 5-HT3A-glvM3M4 chimera with the 5-HT3A M3M4 loop replaced by the GLIC heptapeptide M3M4 loop (SQPARAA) was described previously. Point mutations, alanine and Gly-Ser-Ala insertions into the 5-HT3A-ΔM3M4 construct were generated with the Quikchange site directed mutagenesis procedure (Stratagene, La Jolla, CA). The entire coding region of all mutant constructs was verified by DNA sequencing (Albert Einstein College of Medicine DNA Sequencing Facility). The pXOON plasmid was linearized using NheI and capped mRNA prepared with T7 RNA polymerase (mMessage mMachine, Ambion, Austin, TX).
Use of Xenopus laevis in this study was carried out in strict accordance with the recommendations in the Guide for the Care and Use of Laboratory Animals of the National Institutes of Health. The protocol was approved by the Albert Einstein College of Medicine Animal Care and Use Committee (Protocol Number: 20081201). All surgery was performed under tricaine anesthesia, and all efforts were made to minimize suffering. Oocyctes were harvested from Xenopus (Nasco Science, Fort Atkinson, WI) anesthetized with 0.15% tricaine. Oocyctes were defolliculated by incubation in 2 mg ml^−1 Type 1A collagenase (Sigma-Aldrich, St. Louis, MO) in OR2 (85 mM NaCl, 2 mM KCl, 1 mM MgCl2, and 5 mM HEPES; pH adjusted to 7.5 with NaOH) for a 60 or 75 min. Oocytes were washed in OR2 and stored at 16°C in SOS medium: 100 mM NaCl, 2 mM KCl, 1 mM MgCl2, 1.8 mM CaCl2 5 mM HEPES, pH 7.5 with 100 IU ml^−1 penicillin, 100 µg ml^−1 streptomycin, and 250 ng ml^−1 amphotericin B (Invitrogen, Carlsbad, CA) and 5% horse serum (Sigma-Aldrich). 24 hrs following isolation, oocyctes were injected with 23 nl (2.3 ng) of mRNA and were kept in SOS media for 2–5 d at 16°C.
Currents were recorded under two-electrode voltage clamp from oocytes 2–5 d post-injection as described previously. […] The perfusion chamber volume was 200 µl. […]
(§2) Desensitization rates were determined by fitting a single exponential decay function to the current data with Prism 4 software (GraphPad Software). Significant differences compared with wild-type were determined by a one-way ANOVA (p<0.05) using Dunnett's multiple comparison post-hoc test (p<0.05). […]

[3] = target: T3, 5-HT3A M3M4 loop SQAPARA construct (Mus musculus, UniProt P23979); assay: Two-electrode voltage clamp, oocytes expressing SQAPARA loop construct; assay type: cell-based; details: 10 µM 5-HT, Xenopus oocytes
T3 construct: expressed in transfected cells; host or cells: Xenopus laevis oocytes injected with mRNA
Description: as §1
The construction of the 5-HT3A-glvM3M4 chimera with the 5-HT3A M3M4 loop replaced by the GLIC heptapeptide M3M4 loop (SQPARAA) was described previously. Point mutations, alanine and Gly-Ser-Ala insertions into the 5-HT3A-ΔM3M4 construct were generated with the Quikchange site directed mutagenesis procedure (Stratagene, La Jolla, CA). […]
Currents were recorded under two-electrode voltage clamp from oocytes 2–5 d post-injection as described previously. […]
as §2

5-HT3A-A2 = target: T4, 5-HT3A-A2 (Mus musculus, UniProt P23979, DELINS338-452AA); assay: Radioactive 5-HT binding to oocytes expressing 5-HT3A-A2; details: 150 nM [3H]5-HT + 10 µM 5-HT, 5 min, 45 s cold wash
T4 construct: expressed in transfected cells; host or cells: Xenopus laevis oocytes injected with mRNA
Protocol: Assays were terminated by five washes with ice cold CFFR buffer, followed by solubilization of the oocytes individually with 200 µl 5% SDS. Total wash time was 45 s. […] All data points represent the average of at least fifteen individual oocytes derived from three separate oocyte isolations.
To determine the extent of non-specific binding, all binding experiments were performed in parallel with diethylpyrocarbonate-(DEPC)-treated-water injected oocytes or uninjected oocytes.

T4 sequence (P23979 with tags, fused parts or gaps isoform P23979-2 DELINS338-452AA limits assumed): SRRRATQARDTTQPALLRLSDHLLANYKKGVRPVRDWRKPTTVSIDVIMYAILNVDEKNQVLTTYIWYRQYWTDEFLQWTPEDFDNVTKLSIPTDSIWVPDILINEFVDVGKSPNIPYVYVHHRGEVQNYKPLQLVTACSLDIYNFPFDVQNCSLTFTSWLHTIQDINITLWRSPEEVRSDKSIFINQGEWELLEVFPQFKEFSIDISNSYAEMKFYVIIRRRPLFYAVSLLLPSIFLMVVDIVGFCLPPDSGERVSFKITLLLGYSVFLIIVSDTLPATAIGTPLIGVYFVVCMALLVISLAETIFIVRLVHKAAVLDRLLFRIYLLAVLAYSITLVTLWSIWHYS
T3 sequence (P23979 with tags, fused parts or gaps): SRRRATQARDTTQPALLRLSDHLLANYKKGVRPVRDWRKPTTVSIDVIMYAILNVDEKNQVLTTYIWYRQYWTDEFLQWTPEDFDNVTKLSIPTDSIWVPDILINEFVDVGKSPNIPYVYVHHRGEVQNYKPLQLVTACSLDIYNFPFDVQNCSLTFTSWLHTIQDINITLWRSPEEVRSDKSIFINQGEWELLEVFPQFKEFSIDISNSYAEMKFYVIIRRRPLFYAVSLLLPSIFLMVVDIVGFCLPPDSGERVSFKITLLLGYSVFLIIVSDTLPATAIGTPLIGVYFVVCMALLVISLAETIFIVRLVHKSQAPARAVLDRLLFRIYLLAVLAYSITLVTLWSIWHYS

NCCc1c[nH]c2ccc(O)cc12 [5-HT, 5-hydroxytryptamine]
10–90% Activation rise time ([1]; 10 µM 5-HT): 587 ± 51 ms
Imax (peak current) ([1]; 10 µM 5-HT (saturating), Xenopus oocytes, -60 mV): 7300±700 nA
Desensitization time constant τ ([1]; prolonged 10 µM 5-HT, Ca-free buffer): 77 ± 18 s
nH (Hill coefficient) [2]: 2.6±0.4
10–90% Activation rise time ([2]; 10 µM 5-HT): 621 ± 47 ms
Imax (peak current) ([2]; 10 µM 5-HT, Xenopus oocytes, -60 mV): 6300±800 nA
Desensitization time constant τ ([2]; prolonged 10 µM 5-HT, may be limited by solution exchange): 8 ± 2 s
Peak current [3]: 87±30 nA
Radiolabeled 5-HT bound per oocyte (5-HT3A-A2): 0.33±0.06 pmol per oocyte
